According to patent publication US20240277738A1, “GAMETOCYTOCIDAL COMPOUND” (Eberhard Karls Universität Tübingen Medizinische Fakultãt, priority 2021, published 2024):
Structures can show the parent of a compound that is named as a salt. Where two headings read alike, the source gives them in different places.

Assays:
[1] = tested on: Plasmodium falciparum strain 3D7; assay: Apicoplast as target: growth inhibition with and without IPP supplementation; assay type: cell-based; details: 3D7, 6 days
[2] = tested on: Plasmodium falciparum 7G8 (chloroquine resistant); assay: Growth inhibition assay, resistant strain 7G8; assay type: cell-based; details: read-out: IC50, 7G8
[3] = tested on: Plasmodium falciparum strain 3D7; assay: Ionophoric activity assay: growth inhibition with KCl or MgCl2 supplementation; assay type: cell-based
[4] = tested on: Plasmodium falciparum 3D7 and Dd2 asexual stages; assay: Thin blood smear microscopy (Giemsa); details: 1 nM for 6 h
Description: Then, thin blood smears were prepared, fixed in 100% methanol for 10 seconds, and stained with Giemsa (Merck) solution (5%) for 20 minutes. The slides were washed and observed under a Leica DMBL microscope, and pictures were taken using a ProgRes C10 camera and software (Jenoptik), at 100× magnification.

[5] = tested on: Plasmodium falciparum strain 3D7; assay: Growth inhibition assay with asexual Plasmodium falciparum (HRP2 ELISA); assay type: cell-based; details: for Fold differences, 3 day-assays: IC50 3D7 versus A1-H.1, 3 days; for Fold differences, 6 day-assays: IC50 3D7 versus A1-H.1, 6 days
[6] = tested on: mature (stage IV-V) Plasmodium falciparum gametocytes (NF54); assay: In vitro activity against mature gametocytes (ATP production, BacTiterGlo); assay type: cell-based; details: 48 h
[7] = tested on: Mycobacterium bovis; details: cited from earlier work
[8] = tested on: HepG2 cells; assay: Cytotoxicity, neutral red assay; assay type: cell-based, human; details: for IC50: read-out: IC50 (μM) in HepG2 cells; for SI 3D7: selectivity index HepG2 versus P. falciparum 3D7; for SI A1-H.1: selectivity index HepG2 versus P. knowlesi A1-H.1
[9] = tested on: Plasmodium falciparum Dd2 (multidrug-resistant); assay: Growth inhibition assay, resistant strain Dd2; assay type: cell-based; details: read-out: IC50, Dd2
[10] = tested on: Plasmodium falciparum K1 (multidrug-resistant); assay: Growth inhibition assay, resistant strain K1; assay type: cell-based; details: read-out: IC50, K1
[11] = Plasmodium falciparum, 3D7, 72 h, read-out: IC50, 3 day-assays, 3D7
[12] = Plasmodium falciparum, 3D7, 144 h, read-out: IC50, 6 day-assays, 3D7
[13] = Plasmodium falciparum, 72 h, P. falciparum 3D7, 3 days of incubation, read-out: IC50, 3 day-assays, 3D7
[14] = Plasmodium falciparum, 144 h, P. falciparum 3D7, 6 days of incubation, read-out: IC50, 6 day-assays, 3D7
[15] = Plasmodium falciparum, NF54, stage IV and V gametocytes

CC(C)[C@@H](N)C(=O)O[C@H](C)[C@@H]1C/C=C\CC[C@H](O)C(C)(C)[C@@H]2CC[C@@H](C)[C@@]3(O2)O[B-]24O[C@@H](C(=O)O1)[C@]1(O[C@@H](CC[C@H]1C)C(C)(C)[C@H](O)CCC[C@@H]1C[C@H](OC(=O)[C@@H]3O2)[C@@H](C)O1)O4.[H+] [Boromycin]
IC50 ([1]; supplemented with IPP, read-out: IC50, IPP-supplemented): 0.0014 µM | IC50 ([1]; without IPP, read-out: IC50, control without IPP): 0.0009 µM | IC50 ([2]; 7G8, 3 days of incubation): 0.0004 ± 7e-05 µM | IC50 ([3]; 3D7, 3 days, KCl 220 μg/ml, read-out: IC50, KCl supplemented): 2.1 ± 0.2 nM | IC50 ([3]; 3D7, 3 days, MgCl2 220 μg/ml, read-out: IC50, MgCl2 supplemented): 0.2 nM | IC50 ([3]; 3D7, 3 days, no supplementation, read-out: IC50 (in nM) control): 0.7 ± 0.1 nM | increase of IC50 by supplementation of KCl ([3]; KCl at 220 μg/mL versus control): 3 fold | parasite morphology, strain 3D7 ([4]; 3D7): pyknotic appearance | parasite morphology, strain Dd2 ([4]; Dd2): pyknotic appearance | IC50 ([5]; 3D7, 3 days of incubation, comparator for resistant strains, read-out: IC50, 3D7 (Table 4)): 0.0009 ± 0.0001 µM | Fold differences, 3 day-assays [5]: 0.15 | Fold differences, 6 day-assays [5]: 0.29 | IC50 ([5]; P. falciparum 3D7, 3 days of incubation, read-out: IC50, 3 day-assays, 3D7): 0.0009 ± 0.0001 µM | IC50 ([6]; stage IV and V gametocytes): 0.0085 ± 0.0036 µM | boromycin activity with external KCl ([7]; KCl 20 mg/mL): 10% | boromycin activity without added KCl ([7]; before addition of KCl): 50% | IC50 ([8]; HepG2, 24 hours drug incubation, neutral red): 1250 ± 230 µM | selectivity index (SI) ([8]; HepG2 versus Plasmodium): higher than 200,000 | SI 3D7 [8]: 1,388,000 | SI A1-H.1 [8]: 211,864 | IC50 ([9]; Dd2, 3 days of incubation): 0.0006 ± 0.0004 µM | IC50 ([10]; K1, 3 days of incubation): 0.0007 ± 0.0001 µM

CCN(CC)CCCC(C)Nc1ccnc2cc(Cl)ccc12 (centres unmarked) [Chloroquine, Chloroquine diphosphate]
IC50 ([2]; Plasmodium falciparum, 7G8, 72 h): 0.304 ± 0.0182 µM | increase of IC50 by supplementation of KCl [3]: no difference was observed | IC50 ([3]; Plasmodium falciparum, 3D7, 72 h, read-out: IC50 (in nM) control): 12 ± 0.8 nM | IC50 ([3]; Plasmodium falciparum, 3D7, 72 h, read-out: IC50, KCl supplemented): 11.6 ± 1.4 nM | IC50 ([3]; Plasmodium falciparum, 3D7, 72 h, read-out: IC50, MgCl2 supplemented): 2.2 nM | Fold differences, 3 day-assays [5]: 0.57 | Fold differences, 6 day-assays [5]: 0.61 | IC50 ([5]; Plasmodium falciparum, 3D7, 72 h, read-out: IC50, 3D7 (Table 4)): 0.0084 ± 0.0049 µM | IC50 [5, 11]: 0.0084 ± 0.0049 µM | IC50 [5, 12]: 0.0104 ± 0.0048 µM | IC50 ([8]; Homo sapiens, HepG2, 24 h): 153 µM | SI 3D7 [8]: 18,214 | SI A1-H.1 [8]: 10,551 | IC50 ([9]; Plasmodium falciparum, DD2, 72 h): 0.302 ± 0.119 µM | IC50 ([10]; Plasmodium falciparum, K1, 72 h): 0.401 ± 0.0283 µM

CN(C)[C@@H]1C(O)=C(C(N)=O)C(=O)[C@@]2(O)C(O)=C3C(=O)c4c(O)ccc(Cl)c4[C@@](C)(O)[C@H]3C[C@@H]12 [Chlortetracycline]
IC50 [5, 13]: > 18 µM | IC50 [5, 14]: > 18 µM

CN(C)[C@@H]1C(O)=C(C(N)=O)C(=O)[C@@]2(O)C(O)=C3C(=O)c4c(O)ccc(Cl)c4[C@@H](O)[C@H]3C[C@@H]12 [Demeclocycline]
Fold differences, 6 day-assays [5]: 1.06 | IC50 [5, 13]: > 18 µM | IC50 [5, 14]: 0.41 ± 0.165 µM

C[C@H]1c2cccc(O)c2C(=O)C2=C(O)[C@]3(O)C(=O)C(C(N)=O)=C(O)[C@@H](N(C)C)[C@@H]3[C@@H](O)[C@@H]21 [Doxycycline, Doxycycline Hyclate]
Fold differences, 3 day-assays [5]: 5.1 | Fold differences, 6 day-assays [5]: 0.58 | IC50 [5, 13]: 9.58 ± 2.76 µM | IC50 [5, 14]: 0.386 ± 0.292 µM

CN(C)[C@@H]1C(O)=C(C(N)=O)C(=O)[C@@]2(O)C(O)=C3C(=O)c4c(O)c(NC(=O)CN5CCCC5)cc(F)c4C[C@H]3C[C@@H]12 [Eravacycline]
Fold differences, 3 day-assays [5]: 1.08 | Fold differences, 6 day-assays [5]: 0.4 | IC50 [5, 11]: 2.51 ± 0.55 µM | IC50 [5, 12]: 0.0051 µM

CO[C@@H]1[C@@H](O[C@@H]2O[C@H](C)[C@@H](O[C@H]3C[C@@](C)(O)[C@@H](OC(=O)CC(C)C)[C@H](C)O3)[C@H](N(C)C)[C@H]2O)[C@@H](CC=O)C[C@@H](C)[C@@H](O)/C=C/C=C/C[C@@H](C)OC(=O)C[C@H]1OC(C)=O [Josamycin]
Fold differences, 6 day-assays [5]: 2.3 | IC50 [5, 13]: > 18 µM | IC50 [5, 14]: 0.388 ± 0.185 µM

CN(C)[C@@H]1C(O)=C(C(=O)NCNCCCC[C@H](N)C(=O)O)C(=O)[C@@]2(O)C(O)=C3C(=O)c4c(O)cccc4[C@@](C)(O)[C@H]3C[C@@H]12 [Lymecycline]
Fold differences, 6 day-assays [5]: 1 | IC50 [5, 11]: > 18 µM | IC50 [5, 12]: 1.12 ± 0.247 µM

C=C1c2c(Cl)ccc(O)c2C(=O)C2=C(O)[C@]3(O)C(=O)C(C(N)=O)=C(O)[C@@H](N(C)C)[C@@H]3[C@@H](O)[C@H]12 [Meclocycline]
Fold differences, 6 day-assays [5]: 0.19 | IC50 [5, 11]: > 18 µM | IC50 [5, 12]: 0.292 ± 0.041 µM

C=C1c2cccc(O)c2C(=O)C2=C(O)[C@]3(O)C(=O)C(C(N)=O)=C(O)[C@@H](N(C)C)[C@@H]3[C@@H](O)[C@H]12 [Methacycline]
Fold differences, 6 day-assays [5]: 1.2 | IC50 [5, 13]: > 18 µM | IC50 [5, 14]: 3.72 µM

CN(C)c1ccc(O)c2c1C[C@H]1C[C@H]3[C@H](N(C)C)C(O)=C(C(N)=O)C(=O)[C@@]3(O)C(O)=C1C2=O [Minocycline, Minocycline hydrochloride]
Fold differences, 3 day-assays [5]: 3 | Fold differences, 6 day-assays [5]: 0.56 | IC50 [5, 13]: 9.39 ± 4.35 µM | IC50 [5, 14]: 0.0835 ± 0.025 µM

CO[C@H]1C[C@H](O[C@H]2[C@H](C)[C@@H](O[C@@H]3O[C@H](C)C[C@H](N(C)C)[C@H]3O)[C@@H](C)C[C@@]3(CO3)C(=O)[C@H](C)[C@@H](O)[C@@H](C)[C@@H](C)OC(=O)[C@@H]2C)O[C@@H](C)[C@@H]1O [Oleandomycin]
IC50 [5, 13]: 8.19 ± 3.85 µM | IC50 [5, 14]: > 18 µM

CN(C)c1cc(CNCC(C)(C)C)c(O)c2c1C[C@H]1C[C@H]3[C@H](N(C)C)C(O)=C(C(N)=O)C(=O)[C@@]3(O)C(O)=C1C2=O [Omadacycline]
Fold differences, 3 day-assays [5]: 7.3 | Fold differences, 6 day-assays [5]: 0.86 | IC50 [5, 13]: 8.44 ± 0.618 µM | IC50 [5, 14]: 0.248 ± 0.109 µM

CON(C)Cc1ccc(O)c2c1C[C@H]1C[C@H]3[C@H](N(C)C)C(O)=C(C(N)=O)C(=O)[C@@]3(O)C(O)=C1C2=O [Sarecycline, Sarecycline hydrochloride]
Fold differences, 3 day-assays [5]: 7.1 | Fold differences, 6 day-assays [5]: 0.26 | IC50 [5, 11]: 13.4 ± 1.05 µM | IC50 [5, 12]: 0.244 ± 0.136 µM

CO[C@H]1C[C@H](O[C@H]2[C@H](C)[C@@H](O[C@@H]3O[C@H](C)C[C@H](N(C)C)[C@H]3OC(C)=O)[C@@H](C)C[C@@]3(CO3)C(=O)[C@H](C)[C@@H](OC(C)=O)[C@@H](C)[C@@H](C)OC(=O)[C@@H]2C)O[C@@H](C)[C@@H]1OC(C)=O [Troleandomycin]
IC50 [5, 13]: > 18 µM | IC50 [5, 14]: > 18 µM

CC[C@H](C)[C@H](NC(=O)[C@H]([C@@H](C)CC)N(C)C(C)=O)C(=O)N[C@H](C(=O)N[C@@H](CC(C)C)C(=O)[C@@]1(C)CO1)[C@@H](C)O [epoxomicin]
IC50 [6, 15]: 0.0152 ± 0.0034 µM

CN(C)c1ccc2nc3ccc(=[N+](C)C)cc-3sc2c1 [methylene blue, Methylene Blue]
IC50 [6, 15]: 0.284 ± 0.035 µM
